According to patent US8242240B2, “Anti-inflammatory compounds and uses thereof” (Yale University, priority 2000, dated 2012):

Experiments:
endogenous IKK complex = biological target: T1, endogenous IKK complex (Homo sapiens, UniProt Q9Y6K9); experiment: Anti-NEMO immunoprecipitation of the IKK complex from peptide-treated HeLa cells; type: cell-based; conditions: peptide 200 μM, anti-NEMO IP, anti-IKKβ blot
T1 construct: wild-type but not mutant disrupted the formation of the endogenous IKK complex; endogenous in cells; host or cells: HeLa
Protocol: (A) Sequences of wild-type (SEQ ID NO:18) and mutant (SEQ ID NO:19 forms of IKKβ NBD peptide. (B) GST-pull-down analysis was performed using either GST-NEMO-in vitro translated IKKβ (upper panel) or GST-IKKβ-(644-756)-in vitro translated NEMO (lower panel). The assay was performed in the absence (no peptide) or presence of increasing concentrations ([…], 500 or 1000 μM) of either mutant (MUT) (SEQ ID NO:19) or wild-type (WT) NBD (SEQ ID NO:18). (C) HeLa cells were incubated with either peptide (200 μM) for the times indicated. Following lysis, the IKK complex was immunoprecipitated using anti-NEMO and the resulting immunoblot probed with anti-IKKβ. (D) Gel image showing anti-NEMO immunoprecipitation. (E) Gel image showing anti-FLAG immunoblot. (F) HeLa cells were incubated for three hours with increasing concentrations: 50, 100 or 200 μM) of each peptide followed by treatment for fifteen minutes with TNFα (10 ng/ml) as indicated (+). Following lysis, nuclear extracts were made and 10 μg of protein from each sample was used for EMSA using a specific [^32P]-labeled κB-site probe. (G) Gel image showing anti-Phospho-C-Jun immunoblot and anti-β-Actin immunoblot. […] Subsequently the cells were either treated with TNFα (10 ng/ml) as indicated (toe panel) or left untreated (bottom panel) for a further four hours after which NF-κB activation was measured by luciferase assay. […]

[1] = tested on: mice (PMA-induced ear edema); experiment: PMA-induced ear edema in mice; type: in vivo; conditions: topical 200 μg/ear
Protocol: The NBD peptide was tested for its ability to inhibit inflammatory responses in animals using two distinct models of acute inflammation. In the first model, ear edema was induced in mice using phorbol-12-myristate-13-acetate (PMA) and the effects of topical administration of the NBD peptides were measured. Ear edema using PMA was induced in replicate groups of age and sex matched mice as previously described (Chang et al., (1987) Eur. J. Pharmacol. 142, 197-205). Twenty μl of either NBD peptides (200 μg/ear), dexamethasone (40 μg/ear) or vehicle (DMSO:Ethanol; 25:75 v/v) was applied topically to the right ear of mice thirty minutes before and thirty minutes after the application of 20 μl of PMA (5 μg/ear) dissolved in ethanol. Ear swelling was measured six hours after PMA application using a microgauge and expressed as the mean difference in thickness between the treated (right) and untreated (left) ears. Statistical analysis of the data was performed using the students t-test. A value of p<0.05 was considered statistically significant.

IKKβ-NEMO interaction = biological target: T2, IKKβ-NEMO interaction (Homo sapiens, UniProt Q9Y6K9); experiment: In vitro GST pull-down of IKKβ/NEMO in the presence of NBD peptides; type: binding; conditions: peptide 125, 500 or 1000 μM
T2 construct: bacterially expressed version of full length NEMO fused at its NH2-terminus to glutathione S-transferase; made in house; host or cells: bacteria (GST-NEMO); in vitro translation (IKKβ)
Protocol: (A) Sequences of wild-type (SEQ ID NO:18) and mutant (SEQ ID NO:19 forms of IKKβ NBD peptide. (B) GST-pull-down analysis was performed using either GST-NEMO-in vitro translated IKKβ (upper panel) or GST-IKKβ-(644-756)-in vitro translated NEMO (lower panel). The assay was performed in the absence (no peptide) or presence of increasing concentrations ([…], 500 or 1000 μM) of either mutant (MUT) (SEQ ID NO:19) or wild-type (WT) NBD (SEQ ID NO:18). (C) HeLa cells were incubated with either peptide (200 μM) for the times indicated. Following lysis, the IKK complex was immunoprecipitated using anti-NEMO and the resulting immunoblot probed with anti-IKKβ. (D) Gel image showing anti-NEMO immunoprecipitation. (E) Gel image showing anti-FLAG immunoblot. (F) HeLa cells were incubated for three hours with increasing concentrations: 50, 100 or 200 μM) of each peptide followed by treatment for fifteen minutes with TNFα (10 ng/ml) as indicated (+). Following lysis, nuclear extracts were made and 10 μg of protein from each sample was used for EMSA using a specific [^32P]-labeled κB-site probe. (G) Gel image showing anti-Phospho-C-Jun immunoblot and anti-β-Actin immunoblot. (H) HeLa cells were transfected for forty-eight hours with pBIIX-luciferase then incubated for two hours in the absence (control) or presence of mutant or wild-type NBD peptide (100 and 200 μM of each). Subsequently the cells were either treated with TNFα (10 ng/ml) as indicated (toe panel) or left untreated (bottom panel) for a further four hours after which NF-κB activation was measured by luciferase assay.
The sequences of the two NBD peptides used in t its study were [[…]][…] (wild-type) (SEQ ID NO: 18) and [[…]][…] (mutant) (SEQ ID NO: 19; FIG. 5A). The antennapedia homeodomain sequence (Derossi et al., (1994) J. Biol. Chem. 269, 10444-10450; U.S. Pat. No. 5,888,762; U.S. Pat. No. 6,015,787; U.S. Pat. No. 6,080,724) is bracketed and the positions of the W to A mutations are underlined. Both peptides were dissolved in DMSO to a stock concentration of 20 mM. For all experiments DMSO alone controls were no different from no peptide controls.
The mutant was identical except that the tryptophan residues (W739 and W741) in the NBD were mutated to alanine. […] To test the ability of the NBD peptides to enter cells and inhibit the IKKβ-NEMO interaction, HeLa cells were incubated with the peptides for different time periods and immunoprecipitated the IKK complex using anti-NEMO. In agreement with the in vitro data (FIG. 5B), wild-type but not mutant disrupted the formation of the endogenous IKK complex (FIG. 5C).

[2] = tested on: mice (zymosan-induced peritonitis); experiment: Zymosan-induced peritonitis in mice; type: in vivo, mice (C57BL/6NCR); conditions: for PMN accumulation / exudate formation: NBD peptides 200 mg/ml i.p. with zymosan
Protocol: In a second model, peritonitis was induced in mice by intraperitoneal (i.p.) injection of zymosan either alone or in combination with dexamethasone or the NBD peptides. For zymosan-induced peritonitis, measurement of peritoneal exudates and inflammatory cell collections from replicate groups of age and sex matched mice (C57BL/6NCR) were performed as previously described (Getting et al., (1998) Immunology 95, 625-630). Groups of animals were injected concomitantly with one ml zymosan (1 mg/ml) and either dexamethasone (100 mg/ml) or the NBD peptides (200 mg/ml). The concentration of NOX (nitrate plus nitrite) present in the inflammatory exudates was measured using a colorimetric assay kit (Alexis Corporation) according to the manufacturers protocol.

NF-κB = experiment: EMSA of nuclear extracts from TNFα-treated HeLa cells; type: cell-based, human; conditions: peptide 50, 100 or 200 μM 3 h, TNFα 10 ng/ml 15 min
[3] = NBD peptide 200 mg/ml i.p. with zymosan

T2 sequence (Q9Y6K9 whole entry, the tested form may be a part): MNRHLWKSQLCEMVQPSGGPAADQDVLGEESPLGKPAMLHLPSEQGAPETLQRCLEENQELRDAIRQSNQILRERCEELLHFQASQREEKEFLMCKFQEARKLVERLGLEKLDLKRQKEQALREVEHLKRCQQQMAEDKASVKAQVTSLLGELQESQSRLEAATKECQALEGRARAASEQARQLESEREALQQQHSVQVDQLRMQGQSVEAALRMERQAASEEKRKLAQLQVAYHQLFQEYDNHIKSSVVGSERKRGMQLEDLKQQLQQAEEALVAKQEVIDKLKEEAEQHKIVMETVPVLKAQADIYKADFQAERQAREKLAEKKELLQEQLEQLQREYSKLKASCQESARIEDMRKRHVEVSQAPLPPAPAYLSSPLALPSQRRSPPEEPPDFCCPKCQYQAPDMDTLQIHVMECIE
T1 sequence (Q9Y6K9 whole entry, one chain of several): as the sequence (Q9Y6K9 whole entry, the tested form may be a part) above

| Substance | disruption of the formation of the endogenous IKK complex (endogenous IKK complex) | effect on PMA-induced ear thickening ([1]; p=0.09) | inhibition of in vitro pull-down of [35S]-labeled IKKβ by GST-NEMO (IKKβ-NEMO interaction) | inhibition of in vitro pull-down of [35S]-labeled NEMO by GST-IKKβ-(644-756) (IKKβ-NEMO interaction) | effect on NOX in peritoneal exudates [2, 3] | PMN accumulation [2] | exudate formation [2] | inhibition of TNFα-induced activation and nuclear translocation of NF-κB (EMSA) (NF-κB) | inhibition of PMA-induced ear thickening ([1]; 30 min before and after PMA 5 μg/ear, 6 h) [%] | reduction of NOX in peritoneal exudates [2, 3] [%] |
| --- | --- | --- | --- | --- | --- | --- | --- | --- | --- | --- |
| [DRQIKIWFQNRRMKWKK]TALDASALQTE (DRQIKIWFQNRRMKWKKTALDASALQTE; Description of Artificial Sequence: Synthetic Mutant NBD peptide) [identical to wild-type NBD peptide except W739 and W741 mutated to alanine, reference compound] | not | insignificant | not | not | no effect | no effect | no effect |  |  |  |
| [DRQIKIWFQNRRMKWKK]TALDWSWLQTE (DRQIKIWFQNRRMKWKKTALDWSWLQTE; Description of Unknown: Unknown wildtype NBD peptide) [wild-type NBD peptide] | disrupted |  | dose-dependently inhibited | dose-dependently inhibited |  | significantly reduced | significantly reduced | inhibited | 77±3 | 66±4 |
